Test results published in ChEMBL document CHEMBL5247623, “The SAR and action mechanisms of autophagy inhibitors that eliminate drug resistance” (Eur J Med Chem, 2022).

Key:
[1] = molecular target: Phosphatidylinositol 3-kinase catalytic subunit type 3 (Homo sapiens, UniProt Q8NEB9); assay: Inhibition of VPS34 (unknown origin)
[2] = molecular target: T1, Serine/threonine-protein kinase ULK2 (Homo sapiens, UniProt Q8IYT8); assay: Inhibition of ULK2 (unknown origin)
T1 sequence (Q8IYT8 whole entry): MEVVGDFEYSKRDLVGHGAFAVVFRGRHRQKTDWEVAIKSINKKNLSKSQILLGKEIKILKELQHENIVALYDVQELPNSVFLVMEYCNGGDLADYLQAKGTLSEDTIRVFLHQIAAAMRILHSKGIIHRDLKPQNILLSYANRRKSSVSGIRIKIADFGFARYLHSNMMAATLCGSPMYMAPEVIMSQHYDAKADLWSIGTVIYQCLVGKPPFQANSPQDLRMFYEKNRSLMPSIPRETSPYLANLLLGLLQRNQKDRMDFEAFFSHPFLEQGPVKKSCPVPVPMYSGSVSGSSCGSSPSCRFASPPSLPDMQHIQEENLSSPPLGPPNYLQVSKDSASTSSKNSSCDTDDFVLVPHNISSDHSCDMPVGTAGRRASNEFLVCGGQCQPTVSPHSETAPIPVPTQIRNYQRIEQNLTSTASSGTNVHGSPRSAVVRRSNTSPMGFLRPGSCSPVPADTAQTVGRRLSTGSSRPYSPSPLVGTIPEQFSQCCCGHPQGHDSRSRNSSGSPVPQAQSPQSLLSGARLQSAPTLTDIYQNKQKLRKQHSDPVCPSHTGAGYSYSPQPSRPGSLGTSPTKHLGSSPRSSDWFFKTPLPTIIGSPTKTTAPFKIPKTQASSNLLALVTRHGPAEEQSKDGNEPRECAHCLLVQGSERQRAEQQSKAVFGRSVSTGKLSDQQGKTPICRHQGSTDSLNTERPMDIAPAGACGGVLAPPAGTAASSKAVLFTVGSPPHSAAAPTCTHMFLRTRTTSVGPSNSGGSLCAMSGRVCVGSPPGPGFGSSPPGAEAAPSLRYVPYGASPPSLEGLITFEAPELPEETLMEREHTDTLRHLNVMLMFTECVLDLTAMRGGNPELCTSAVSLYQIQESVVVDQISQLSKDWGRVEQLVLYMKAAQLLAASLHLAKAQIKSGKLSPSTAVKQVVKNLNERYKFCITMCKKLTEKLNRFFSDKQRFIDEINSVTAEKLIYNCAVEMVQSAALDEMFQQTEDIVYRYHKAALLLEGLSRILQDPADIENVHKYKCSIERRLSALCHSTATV

[3] = molecular target: T2, Serine/threonine-protein kinase ULK1 (Homo sapiens, UniProt O75385); assay: Inhibition of ULK1 (unknown origin)
T2 sequence (O75385 whole entry): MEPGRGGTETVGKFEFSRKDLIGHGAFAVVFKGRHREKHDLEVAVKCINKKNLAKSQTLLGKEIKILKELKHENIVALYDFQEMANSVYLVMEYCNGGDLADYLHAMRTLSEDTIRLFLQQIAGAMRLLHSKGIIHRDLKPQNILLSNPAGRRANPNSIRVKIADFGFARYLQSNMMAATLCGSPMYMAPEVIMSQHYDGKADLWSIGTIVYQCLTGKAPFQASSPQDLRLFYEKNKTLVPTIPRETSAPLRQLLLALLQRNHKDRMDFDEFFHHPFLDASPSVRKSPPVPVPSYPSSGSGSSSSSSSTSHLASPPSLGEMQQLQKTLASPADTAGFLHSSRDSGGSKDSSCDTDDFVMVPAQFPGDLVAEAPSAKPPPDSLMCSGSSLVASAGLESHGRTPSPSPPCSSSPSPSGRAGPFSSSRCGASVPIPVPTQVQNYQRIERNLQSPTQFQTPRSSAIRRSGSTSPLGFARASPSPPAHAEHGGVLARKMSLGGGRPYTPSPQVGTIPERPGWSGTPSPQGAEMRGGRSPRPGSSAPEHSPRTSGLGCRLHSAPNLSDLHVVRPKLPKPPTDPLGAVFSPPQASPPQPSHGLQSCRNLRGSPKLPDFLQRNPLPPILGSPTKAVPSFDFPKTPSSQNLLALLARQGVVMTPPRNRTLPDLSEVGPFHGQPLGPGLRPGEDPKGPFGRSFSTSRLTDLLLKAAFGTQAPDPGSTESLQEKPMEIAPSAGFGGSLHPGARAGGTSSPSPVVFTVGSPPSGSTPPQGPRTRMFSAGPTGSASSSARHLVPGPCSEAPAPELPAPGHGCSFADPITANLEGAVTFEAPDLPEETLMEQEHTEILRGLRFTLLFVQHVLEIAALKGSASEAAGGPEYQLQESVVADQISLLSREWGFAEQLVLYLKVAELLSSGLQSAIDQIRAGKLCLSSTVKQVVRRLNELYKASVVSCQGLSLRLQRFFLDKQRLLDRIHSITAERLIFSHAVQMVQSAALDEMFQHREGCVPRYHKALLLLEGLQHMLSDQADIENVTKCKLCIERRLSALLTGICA

[4] = system: U2OS; assay: Inhibition of autophagy in human U2OS cells expressing tfLC3 incubated for 3 hrs by fluorescent microscopy; format: functional, cell-based
[5] = system: U2OS; assay: Cytotoxicity against human U2OS cells; format: functional, cell-based
[6] = Inhibition of starvation induced autophagy in human MCF7 cells expressing eGFP-LC3; format: functional, cell-based
[7] = Inhibition of rapamycin induced autophagy in human MCF7 cells expressing eGFP-LC3; format: functional, cell-based

Phosphatidylinositol 3-kinase catalytic subunit type 3, sequence (Q8NEB9 whole entry): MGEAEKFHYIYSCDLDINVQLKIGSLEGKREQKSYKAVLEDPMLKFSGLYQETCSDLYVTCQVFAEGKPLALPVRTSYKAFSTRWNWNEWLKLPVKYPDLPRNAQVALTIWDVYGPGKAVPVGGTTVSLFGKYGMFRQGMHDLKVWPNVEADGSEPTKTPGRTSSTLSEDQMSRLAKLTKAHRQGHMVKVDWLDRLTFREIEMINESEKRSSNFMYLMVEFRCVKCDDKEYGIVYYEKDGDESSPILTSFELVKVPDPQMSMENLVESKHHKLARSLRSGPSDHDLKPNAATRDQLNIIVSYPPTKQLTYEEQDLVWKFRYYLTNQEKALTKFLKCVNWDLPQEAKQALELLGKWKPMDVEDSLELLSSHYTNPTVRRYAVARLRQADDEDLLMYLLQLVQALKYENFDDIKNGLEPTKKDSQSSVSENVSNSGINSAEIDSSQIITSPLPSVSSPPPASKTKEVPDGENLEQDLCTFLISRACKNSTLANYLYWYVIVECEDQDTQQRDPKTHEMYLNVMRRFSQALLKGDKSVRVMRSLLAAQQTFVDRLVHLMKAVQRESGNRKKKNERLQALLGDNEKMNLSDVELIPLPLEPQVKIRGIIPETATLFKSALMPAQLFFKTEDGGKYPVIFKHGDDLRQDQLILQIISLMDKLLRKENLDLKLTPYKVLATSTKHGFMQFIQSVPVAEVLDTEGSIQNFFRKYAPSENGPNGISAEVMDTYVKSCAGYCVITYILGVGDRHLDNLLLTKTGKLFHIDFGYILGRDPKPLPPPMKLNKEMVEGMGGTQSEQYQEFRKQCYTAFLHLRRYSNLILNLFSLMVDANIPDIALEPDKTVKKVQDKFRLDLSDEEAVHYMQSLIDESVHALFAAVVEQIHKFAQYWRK

IC50 [1]	IC50 [6]	Structure (SMILES)	other results
≥ 0.5 µM		CCN/C=C1\C(=O)O[C@H](COC)[C@@]2(C)C1=C(O)C(=O)C1=C2[C@H](OC(C)=O)C[C@]2(C)C(=O)CC[C@@H]12	
0.077 µM		COC[C@H]1OC(=O)c2coc3c2[C@@]1(C)C1=C(C3=O)[C@@H]2C[C@@H](Br)C(OC(C)=O)[C@@]2(C)C[C@H]1OC(C)=O (some centres undefined)	
	3 µM	CC(C)C(=O)N1CCc2cc(Br)c(S(=O)(=O)Nc3ccc(Cl)c(C(F)(F)F)c3)cc21	
0.017 µM		COC[C@H]1OC(=O)c2coc3c2[C@@]1(C)C1=C(C3=O)[C@@H]2CCC(=O)[C@@]2(C)CC1	
	2.13 µM	O=[N+]([O-])c1ccc(Oc2nc(Cl)cc(Nc3ccccc3)n2)cc1	
≥ 0.5 µM		COC[C@H]1OC(=O)/C(=C\N)C2=C(O)C(=O)C3=C([C@H](OC(C)=O)C[C@]4(C)C(=O)CC[C@@H]34)[C@]21C	
0.11 µM	0.38 µM	Clc1cc(Nc2cc[nH]n2)nc(OCc2ccncc2)n1	IC50 [7]: 0.28 µM
0.036 µM	0.13 µM	O=[N+]([O-])c1ccc(Oc2nc(Cl)cc(Nc3cc(C4CC4)[nH]n3)n2)cc1	IC50 [7]: 0.1 µM
0.309 µM		COC[C@H]1OC(=O)c2coc3c2[C@@]1(C)C1=C(C3=O)[C@@H]2C[C@@H](OC(C)=O)C(OC(C)=O)[C@@]2(C)C[C@H]1OC(C)=O (some centres undefined)	
0.146 µM	0.39 µM	Cc1cc(Nc2cc(N3CCN(C)CC3)nc(Oc3ccc([N+](=O)[O-])cc3)n2)n[nH]1	
0.285 µM	0.45 µM	Cc1cc(Nc2cc(N(C)C)nc(Oc3ccc([N+](=O)[O-])cc3)n2)n[nH]1	IC50 [7]: 0.28 µM
0.061 µM	0.45 µM	NS(=O)(=O)c1ccc(Oc2nc(Cl)cc(Nc3cc[nH]n3)n2)cc1	IC50 [7]: 0.42 µM
	0.81 µM	Cc1ccc(NS(=O)(=O)c2cc3c(cc2Br)CCN3C(=O)C2CC2)cc1C(F)(F)F	
	0.09 µM	Cc1cc(Nc2cc(Cl)nc(Oc3ccc([N+](=O)[O-])cc3)n2)n[nH]1	IC50 [7]: 0.04 µM

Continued, compound first:

Structure (SMILES)	IC50 [1]	IC50 [6]	other results
CCCN/C=C1\C(=O)O[C@H](COC)[C@@]2(C)C1=C(O)C(=O)C1=C2[C@H](OC(C)=O)C[C@]2(C)C(=O)CC[C@@H]12	≥ 0.5 µM		
CC(C)[C@H](NC(=O)c1cc(C2C=C3N=C(c4ccc(OCCN5CCCCC5)cc4)C=CN3N2)cs1)C(F)(F)F (some centres undefined)			IC50 [2]: 0.0026 µM; IC50 [3]: 0.0016 µM
CN1CCN(CCNc2c3ccccc3nc3cc(Cl)ccc23)CC1			EC50 [4]: 5 µM; IC50 [5]: 27 µM
CCN(/C=C1\C(=O)O[C@H](COC)[C@@]2(C)C1=C(O)C(=O)C1=C2[C@H](OC(C)=O)C[C@]2(C)C(=O)CC[C@@H]12)CC	0.08 µM		
O=C(C1CC1)N1CCc2cc(Br)c(S(=O)(=O)Nc3cc(Cl)ccc3C(F)(F)F)cc21		2.4 µM	
O=C(C1CCC1)N1CCc2cc(Br)c(S(=O)(=O)Nc3ccc(Cl)c(C(F)(F)F)c3)cc21		3.3 µM	
O=C(N[C@@H](C1CC1)C(F)(F)F)c1cc(C2C=C3N=C(c4ccc(F)cc4)C=CN3N2)cs1 (some centres undefined)			IC50 [2]: 0.03 µM; IC50 [3]: 0.0083 µM
O=C(C1CC1)N1CCc2cc(Br)c(S(=O)(=O)Nc3cc(C(F)(F)F)ccc3Cl)cc21		1.1 µM	
Cc1cc(Nc2cc(C(F)(F)F)nc(Oc3ccc([N+](=O)[O-])cc3)n2)n[nH]1	0.078 µM	0.19 µM	IC50 [7]: 0.07 µM
O=C(C1CC1)N1CCc2cc(Br)c(S(=O)(=O)Nc3cc(C(F)(F)F)ccc3F)cc21		1.4 µM	
COC[C@H]1OC(=O)c2coc3c2[C@@]1(C)C1=C(C3=O)[C@@H]2C[C@@H](O)C(OC(C)=O)[C@@]2(C)C[C@H]1OC(C)=O (some centres undefined)	0.153 µM		
COC[C@H]1OC(=O)C2=CCOC3=C2[C@@]1(C)C1=C(C3=O)[C@@H]2CCC(=O)[C@@]2(C)C[C@H]1OC(C)=O	0.271 µM		
Cc1cc(Nc2cc(Cl)nc(Oc3ccc([N+](=O)[O-])cc3)n2)no1	0.02 µM	0.17 µM	IC50 [7]: 0.12 µM
Cc1cc(Nc2cc(C)[nH]n2)nc(Oc2ccc([N+](=O)[O-])cc2)n1	0.023 µM	0.07 µM	IC50 [7]: 0.04 µM
COC[C@H]1OC(=O)c2coc3c2[C@@]1(C)C1=C(C3=O)[C@@H]2CC[C@H](O)[C@@]2(C)C[C@H]1OC(C)=O	0.0005 µM		
COc1ccc2nc3cc(Cl)ccc3c(NCCCCN3CCN(C)CC3)c2c1			EC50 [4]: 0.1 µM; IC50 [5]: 0.7 µM
COC[C@H]1OC(=O)c2coc3c2[C@@]1(C)C1=C(C3=O)[C@@H]2CCC(OC(C)=O)[C@@]2(C)C[C@H]1OC(C)=O (some centres undefined)	0.059 µM		

Structure (SMILES)	IC50 [1]	IC50 [6]	other results
COC(=O)c1coc2c(O)c3c(c(C)c12)C=C[C@]1(C)C(=O)CC[C@@H]31	4.6 µM		
COC[C@H]1OC(=O)C23CC2COC2=C3[C@@]1(C)C1=C(C2=O)[C@@H]2CCC(=O)[C@@]2(C)C[C@H]1OC(C)=O (some centres undefined)	≥ 0.5 µM		
O=C(CC1CC1)N1CCc2cc(Br)c(S(=O)(=O)Nc3ccc(Cl)c(C(F)(F)F)c3)cc21		4.5 µM	
Cc1cc(Nc2cc(N3CCOCC3)nc(Oc3ccc([N+](=O)[O-])cc3)n2)n[nH]1	0.121 µM	0.23 µM	IC50 [7]: 0.16 µM
CCN(CC)CCCC(C)Nc1c2ccc(Cl)cc2nc2ccc(OC)cc12 (centres undefined) [QUINACRINE]			EC50 [4]: 0.25 µM; IC50 [5]: 2.5 µM
Cc1cc(Nc2cc(C(F)(F)F)nc(Nc3ccc([N+](=O)[O-])cc3)n2)n[nH]1	0.31 µM	0.34 µM	IC50 [7]: 0.44 µM
O=C(C1CC1)N1CCc2cc(Br)c(S(=O)(=O)Nc3ccc(Cl)c(C(F)(F)F)c3)cc21		0.14 µM	
O=C(CC1CC1)N1CCc2ccc(S(=O)(=O)Nc3ccc(Cl)c(C(F)(F)F)c3)cc21		6.6 µM	
CCCCN/C=C1\C(=O)O[C@H](COC)[C@@]2(C)C1=C(O)C(=O)C1=C2[C@H](OC(C)=O)C[C@]2(C)C(=O)CC[C@@H]12	0.052 µM		
N#Cc1ccc(Oc2nc(Cl)cc(Nc3cc[nH]n3)n2)cc1	0.049 µM	0.13 µM	IC50 [7]: 0.09 µM
Cc1cc(Nc2cc(Cl)nc(OCc3ccc([N+](=O)[O-])cc3)n2)n[nH]1	0.214 µM	0.2 µM	IC50 [7]: 0.47 µM
COC[C@H]1OC(=O)c2c(C)oc3c2[C@@]1(C)C1=C(C3=O)[C@@H]2CCC(=O)[C@@]2(C)C[C@H]1OC(C)=O	≥ 0.5 µM		
COC[C@H]1OC(=O)c2coc3c2[C@@]1(C)C1=CC[C@]2(C)C(=O)CC[C@H]2C1C3=O (some centres undefined)	0.054 µM		
CN/C=C1\C(=O)O[C@H](COC)[C@@]2(C)C1=C(O)C(=O)C1=C2[C@H](OC(C)=O)C[C@]2(C)C(=O)CC[C@@H]12	≥ 0.5 µM		
CC(C)(C)c1cc(Nc2cc(Cl)nc(Oc3ccc([N+](=O)[O-])cc3)n2)n[nH]1	0.627 µM	1.4 µM	IC50 [7]: 2 µM
COC[C@H]1OC(=O)c2coc3c2[C@@]1(C)C1=C(C3=O)[C@@H]2CCC(=O)[C@@]2(C)C[C@H]1OC(C)=O [WORTMANNIN]	0.0042 µM		
O=C(C1CC1)N1CCc2cc(Br)c(S(=O)(=O)Nc3cccc(C(F)(F)F)c3)cc21		0.56 µM	
